Results as given in US3998971A, “Novel N-vinyloxyethyl-α-methyl-β-phenethylamines for depressing appetite” (Abbott Laboratories, priority 1975, dated 1976).
“Also recorded” adds a separate entry of the source. Counter-ions that a name gives are not always drawn.

Experiments:
Mouse = test: Symtomatology Tests in the Mouse; format: in vivo; conditions: for stimulant effects: low doses (10-50 mg/kg)
From the text: Symtomatology Tests in the Mouse

diabetics = conditions: cited from earlier work
[1] = system: plasma free fatty acids and triglycerides; conditions: cited from earlier work
[2] = system: rat serum lipids and glucose; test: Effect of pre-treatment on rat serum lipids and glucose induced by olive oil gavage; format: in vivo, rat (male Sprague Dawley); conditions: for Serum Free Fatty Acids: 20 mg/kg i.p. 2 hours before olive oil (20 ml/kg gavage); for Serum Free Fatty Acids / Serum Concentration, Cholesterol / Serum Concentration, Glucose / Serum Concentration, Glycerol / Serum Concentration, Triglycerides: blood 3 hours after oil; for Serum Concentration, Cholesterol / Serum Concentration, Glucose / Serum Concentration, Glycerol / Serum Concentration, Triglycerides: 20 mg/kg i.p. 2 hours before olive oil; for inhibiting the increase in serum triglycerides induced by olive oil gavage: % of the oil treated group; for reduction of olive oil induced increase in serum cholesterol: HCl salts; for inhibiting the increase in serum triglycerides, compared with fenfluramine: olive oil gavage
From the text: The effect of pre-treatment with fenfluramine and the HCl salts of the compounds of formula B in which R is Cl or CF3 on rat serum lipids and glucose induced by olive oil gavage.
The present study was designed to compare the effects of fenfluramine, and the HCl salts of the compounds of formula B in which R=Cl and CF3 on serum glucose and lipid parameters in male rats after an olive oil meal.
Twenty-four male Sprague Dawley rats (200-250 g.) were divided into 8 groups as follows:
The animals were not fasted. Where indicated, the rats were pre-treated (intraperitoneally) with the appropriate drug for 2 hours prior to the administration of olive oil. Three hours after olive oil treatment, the animals were anesthetized with ether and blood samples obtained by cardiac puncture of the exposed heart. In each case, total treatment time was 5 hours.

Rats [3] = test: Reduction of food consumption in rats (average daily consumption of food, ED50); format: in vivo, rat; conditions: for % Change From Control Value in Average Daily Consumption of Food: one hour prior to feeding; for ED50: Rattus norvegicus, po, read-out: Calculated ED50 (dose necessary to reduce the intake of food by 50%); for potency compared with fenfluramine: HCl salts, summary in words; for Relative Potency: Summary of Table II, fenfluramine = 1
Procedure: Table II records the percent change in average daily consumption of food at various dosage levels upon administration of fenfluramine or the HCl salt of the compounds of formula B in which R is Cl or CF3 as well as the dose in milligrams per killograms necessary to reduce the intake of food by 50% (ED 50). […] In this study, drugs were administered one hour prior to feeding on the fifth day of regular food intake at doses of 5, 10 and 20 milligrams per killogram, with five rats being dosed at each level and fifteen rats serving as controls.
*ED50 : dose (mg/kg) necessary to reduce the intake of food by 50%.

Acute Toxicity in Rats = format: in vivo, rat; conditions: rat, in vivo, po; P.O., rats; range in parentheses; read-out: Calculated LD50
Rats [4] = test: Acute Toxicity in Rats; format: in vivo, rat; conditions: for Mortality Ratio / toxicity relative to fenfluramine: rats; for toxicity compared with fenfluramine / toxicity relative to fenfluramine: HCl salts; for toxicity compared with fenfluramine: summary in words; for toxicity relative to fenfluramine: acute
Rats [5] = test: Sidman Avoidance Test in the Rat; format: in vivo, rat (male, Long Evans black-hooded); conditions: for effect on performance / behavior: 8 mg/kg; for effect on performance / behavior / effect on performance in Sidman Avoidance test / effect on response rate / effect on shock rate: in words; for effect on performance in Sidman Avoidance test / effect on response rate / effect on shock rate: overall
Procedure: The compound fenfluramine and the HCl salt compound of formula B in which R is Cl were examined in the Sidman Avoidance test.
Fenfluramine was run as a standard compound for comparative purposes in the study of appetite-suppressing drugs. The effects of drug-induced behavior are evaluated using the technique of Sidman Avoidance (Sidman, M., J. Comp. Physiol. Psychol. 46:253-261, 1953).
Male, Long Evans black-hooded rats (Simonsen Labs) weighing approximately 500 grams are run individually in Lehigh Valley Electronics rodent test chambers. Sessions (day/night) are 7.5 hours and 14 hours in length, respectively. The paradigm consists of two distinct temporal intervals for neither of which is the rat given any exteroceptive cues. The amount of time that elapses between shocks designates the shock-shock interval, is of a predetermined fixed length (10 seconds), and programmed by a recycling timer. When the rat responds by pressing a lever, the shock-shock interval is terminated and the response-shock interval is started. This interval is also of a predetermined fixed length (30 seconds) and programmed by a recycling timer. Both timers never operate simultaneously. The response-shock interval begins anew each time the rat responds on the lever. If the interval should elapse without the rat responding, a Shock (0.5 seconds, 10 mA) is given via the grid floor and the response-shock interval ends and the shock-shock interval begins.
Drug effects are evaluated as a precentage deviation of the rat's behavior from his baseline rate (responses/minute and shocks/minute). These effects are analyzed in 15 minute segments and an overall percentage deviation (response index and shock index) is determined.
based on an 8 mg/kg oral dose.

[6] = Solubility of the salt in water; conditions: HCl salt
[7] = Comparison with fenfluramine: stimulating properties; format: in vivo; conditions: HCl salts, in words
[8] = 8 mg/kg oral, 7.5 hours session, 4 rats

| SMILES | stimulant effects (Mouse) | Serum Free Fatty Acids [2] [μEq/liter] | Serum Concentration, Cholesterol [2] [mg%] | Serum Concentration, Glucose [2] [mg%] | Serum Concentration, Glycerol [2] | Serum Concentration, Triglycerides [2] [mg%] | % Change From Control Value in Average Daily Consumption of Food (Rats [3]; 5 mg/kg P.O., rats) [%] | % Change From Control Value in Average Daily Consumption of Food (Rats [3]; 10 mg/kg P.O., rats) [%] | % Change From Control Value in Average Daily Consumption of Food (Rats [3]; 20 mg/kg P.O., rats) [%] | ED50 (Rats [3]; P.O., rats) [mg/kg] | LD50 (Acute Toxicity in Rats) [mg/kg] | Mortality Ratio (Rats [4]; 0.25 gm/kg P.O.) | Shock Rate (percentage deviation from baseline rate) (Rats [5]; [8]) [%] | effect on performance / behavior (Rats [5]) | effect on performance in Sidman Avoidance test (Rats [5]) | effect on response rate (Rats [5]) | effect on shock rate (Rats [5]) | solubility in water [6] | inhibiting the increase in serum triglycerides induced by olive oil gavage [2] | reduction of olive oil induced increase in serum cholesterol [2] | further results |
| --- | --- | --- | --- | --- | --- | --- | --- | --- | --- | --- | --- | --- | --- | --- | --- | --- | --- | --- | --- | --- | --- |
| CCNC(C)Cc1cccc(C(F)(F)F)c1 (centres unmarked) [Fenfluramine, reference compound] | stimulant effects | 919±61 | 140±3 | 160±9 | 1.6±.10 mg% | 61±1 | -18.7 | -39.3 | -50.5 | 20 | 225 | 4/6 | -50 | amphetamine-like effect on performance | all doses to be effective in producing significant results; also recorded: results indicative of amphetamine-like compounds | increase in response rate | decrease in shock rate |  |  |  | sedative or stimulant action (diabetics; Nursing 74): acts as a sedative rather than a stimulant; glucose tolerance in diabetics (diabetics; Turtle et al.): appears to improve glucose tolerance in diabetics; undesirable side effects (diabetics; diabetics, Turtle et al.): without producing undersirable side effects; post absorption glucose levels (diabetics; given before meals, maturity onset and insulin-requiring diabetics, Turtle et al.): consistently reduced post absorption glucose levels; intestinal absorption of triglycerides ([1]; Bizzi et al.): inhibition of the intestinal absorption of triglycerides; plasma triglycerides ([1]; fed, but not fasted, animals, Garattini et al.): decrease in plasma triglycerides in fed, but not fasted, animals; concentration of plasma free fatty acids ([1]; rats, Bizzi et al.): rapid increase; rise in plasma triglycerides after olive oil gavage ([1]; several hours after olive oil gavage, prior treatment of rats): inhibited; effect on olive oil induced increase in serum cholesterol ([2]; in words): unaffected; Calculated ED50 (dose necessary to reduce the intake of food by 50%) (Rats [3]; P.O., rats): 20.7 mg/kg; Mortality Ratio (Rats [4]; 0.1 gm/kg P.O.): 0/6; Mortality Ratio (Rats [4]; 0.2 gm/kg P.O.): 2/6; Mortality Ratio (Rats [4]; 0.3 gm/kg P.O.): 5/6; Response Rate (percentage deviation from baseline rate) (Rats [5]; [8]): +15% |
| C=COCCNC(C)Cc1cccc(C(F)(F)F)c1 (stereo not drawn) [HCl Salt, R=CF3, N-(2-vinyloxyethyl)-α-methyl-β-(3-trifluoromethylphenyl) Phenethylamine Hydrochloride] |  | 870±61 | 122±10 | 159±7 | 2.1±.40 mg% | 62±13 | -22.9 | -28.3 | -76.0 | 17.4 | 1010 |  |  |  |  |  |  | soluble in water | 50-55% | 14-19% | inhibiting the increase in serum triglycerides, compared with fenfluramine ([2]; in words): comparable to fenfluramine; potency compared with fenfluramine (Rats [3]): considerably more potent; Relative Potency (Rats [3]): 1.2; potency relative to fenfluramine (times) (Rats [3]; rats, P.O.): ~1.2 times; Mortality Ratio (Rats [4]; 0.5 gm/kg P.O.): 0/6; Mortality Ratio (Rats [4]; 0.75 gm/kg P.O.): 1/6; Mortality Ratio (Rats [4]; 0.85 gm/kg P.O.): 2/6; Mortality Ratio (Rats [4]; 1.0 gm/kg P.O.): 4/6; Mortality Ratio (Rats [4]; 2.00 gm/kg P.O.): 5/6; toxicity compared with fenfluramine (Rats [4]): considerably less toxic than fenfluramine; toxicity relative to fenfluramine (Rats [4]): approximately four times less toxic than fenfluramine; stimulating properties [7]: minimum stimulating properties |
| C=COCCNC(C)Cc1ccc(Cl)cc1 (stereo not drawn) [HCl Salt, R=Cl, N-(2-vinyloxyethyl)-α-methyl-β-(4-cholorophenyl) ethylamine hydrochloride] |  | 780±66 | 116±8 | 159±1 | 1.8±.30 mg% | 62±7 | -24.5 | -53.5 | -87.3 | 7.7 | 950 | 0/6 | -55 | did not significantly affect behavior except for the parameter of shock rate which was reduced | did not affect performance significantly overall | response rate remaining stable | sharp decrease in shock rate | soluble in water | 50-55% | 14-19% | stimulatory effect (Mouse; high doses (300-1000 mg/kg)): only a weak stimulatory effect; inhibiting the increase in serum triglycerides, compared with fenfluramine ([2]; in words): comparable to fenfluramine; potency compared with fenfluramine (Rats [3]): considerably more potent; Relative Potency (Rats [3]): 2.5; potency relative to fenfluramine (times) (Rats [3]; rats, P.O.): approximately 2.5 times; Mortality Ratio (Rats [4]; 0.5 gm/kg P.O.): 1/6; Mortality Ratio (Rats [4]; 1.0 gm/kg P.O.): 3/6; Mortality Ratio (Rats [4]; 1.25 gm/kg P.O.): 4/6; Mortality Ratio (Rats [4]; 1.50 gm/kg P.O.): 5/6; Mortality Ratio (Rats [4]; 2.00 gm/kg P.O.): 6/6; toxicity compared with fenfluramine (Rats [4]): considerably less toxic than fenfluramine; toxicity relative to fenfluramine (Rats [4]): approximately four times less toxic than fenfluramine; stimulating properties [7]: minimum stimulating properties |
| CN[C@@H](C)Cc1ccccc1 [Methamphetamine, methamphetamine] | stimulant effects |  |  |  |  |  |  |  |  |  |  |  |  |  |  |  |  |  |  |  |  |
